# Results published in the OligoGym collection.
# HELM strings list units from the 5' end as sugar, base in round brackets, then linkage (d deoxyribose, r ribose, m 2'-O-methyl, p phosphodiester). Strings are as the collection lists them; they lack the last nucleoside at the 3' end of the tested compound. [moe] = 2'-O-(2-methoxyethyl) (MOE); [sp] = phosphorothioate linkage; [m5C] = 5-methylcytosine
# Biological target: APP
# Assay: mouse, dose not given
# Conditions: ASO
row,Substance,3 h FOB score [score 0-7]
1,RNA1{[moe](T)[sp].[moe](G)p.[moe](G)p.[moe](T)p.[moe]([m5C])[sp].d(T)[sp].d(A)[sp].d(T)[sp].d(A)[sp].d(T)[sp].d(A)[sp].d(T)[sp].d(T)[sp].d(T)[sp].d([m5C])[sp].[moe](A)p.[moe](G)p.[moe](G)[sp].[moe]([m5C])}$$$$ (last 3' nucleoside missing),0
2,RNA1{[moe](G)[sp].[moe]([m5C])p.[moe](A)p.[moe](T)p.[moe](G)[sp].d(T)[sp].d(T)[sp].d([m5C])[sp].d(A)[sp].d(T)[sp].d(T)[sp].d([m5C])[sp].d(T)[sp].d([m5C])[sp].d(A)[sp].[moe](T)p.[moe]([m5C])p.[moe]([m5C])[sp].[moe]([m5C])}$$$$ (last 3' nucleoside missing),0
3,RNA1{[moe](G)[sp].[moe](G)p.[moe]([m5C])p.[moe](A)p.[moe](T)p.[moe]([m5C])[sp].d(A)[sp].d([m5C])[sp].d(T)[sp].d(T)[sp].d(A)[sp].d([m5C])[sp].d(A)[sp].d(A)[sp].d(A)[sp].d([m5C])[sp].[moe](T)p.[moe]([m5C])[sp].[moe](A)}$$$$ (last 3' nucleoside missing),0
4,RNA1{[moe](G)[sp].[moe](T)p.[moe](A)p.[moe](G)p.[moe](G)[sp].d(A)[sp].d(A)[sp].d([m5C])[sp].d(T)[sp].d([m5C])[sp].d(G)[sp].d(A)[sp].d(A)[sp].d([m5C])[sp].d([m5C])[sp].[moe](A)p.[moe]([m5C])p.[moe]([m5C])[sp].[moe](T)}$$$$ (last 3' nucleoside missing),2
5,RNA1{[moe](G)[sp].[moe]([m5C])p.[moe](A)p.[moe]([m5C])p.[moe](A)[sp].d(A)[sp].d(A)[sp].d(T)[sp].d(T)[sp].d(T)[sp].d(T)[sp].d(A)[sp].d(T)[sp].d([m5C])[sp].d(A)[sp].[moe]([m5C])p.[moe](A)p.[moe](T)[sp].[moe]([m5C])}$$$$ (last 3' nucleoside missing),0
6,RNA1{[moe]([m5C])[sp].[moe]([m5C])p.[moe](A)p.[moe](T)p.[moe]([m5C])[sp].d(T)[sp].d(T)[sp].d(T)[sp].d(A)[sp].d(T)[sp].d(T)[sp].d([m5C])[sp].d(T)[sp].d(A)[sp].d(T)[sp].[moe](G)p.[moe](A)p.[moe](G)[sp].[moe]([m5C])}$$$$ (last 3' nucleoside missing),0.75
7,RNA1{[moe](T)[sp].[moe](G)p.[moe](G)p.[moe](T)p.[moe]([m5C])[sp].d(A)[sp].d(T)[sp].d(T)[sp].d(A)[sp].d([m5C])[sp].d(T)[sp].d(A)[sp].d([m5C])[sp].d(T)[sp].d(T)[sp].[moe](A)p.[moe]([m5C])p.[moe](A)[sp].[moe]([m5C])}$$$$ (last 3' nucleoside missing),0
8,RNA1{[moe]([m5C])[sp].[moe]([m5C])p.[moe](T)p.[moe](T)p.[moe](T)[sp].d(G)[sp].d(T)[sp].d(T)[sp].d(T)[sp].d(G)[sp].d(A)[sp].d(A)[sp].d([m5C])[sp].d([m5C])[sp].d([m5C])[sp].[moe](A)p.[moe]([m5C])p.[moe](A)[sp].[moe](T)}$$$$ (last 3' nucleoside missing),0
9,RNA1{[moe](T)[sp].[moe](A)p.[moe](G)p.[moe](T)p.[moe](A)[sp].d([m5C])[sp].d(A)[sp].d(T)[sp].d(T)[sp].d([m5C])[sp].d([m5C])[sp].d(A)[sp].d([m5C])[sp].d(T)[sp].d(T)[sp].[moe](T)p.[moe](G)p.[moe](T)[sp].[moe](T)}$$$$ (last 3' nucleoside missing),0
10,RNA1{[moe](T)[sp].[moe](T)p.[moe]([m5C])p.[moe]([m5C])p.[moe](A)[sp].d(A)[sp].d(A)[sp].d(G)[sp].d(A)[sp].d(T)[sp].d(T)[sp].d([m5C])[sp].d([m5C])[sp].d(A)[sp].d([m5C])[sp].[moe](T)p.[moe](T)p.[moe](T)[sp].[moe]([m5C])}$$$$ (last 3' nucleoside missing),0
11,RNA1{[moe](T)[sp].[moe](T)p.[moe](T)p.[moe](G)p.[moe]([m5C])[sp].d(A)[sp].d(T)[sp].d(A)[sp].d(T)[sp].d(T)[sp].d([m5C])[sp].d(A)[sp].d(T)[sp].d(A)[sp].d([m5C])[sp].[moe](T)p.[moe](T)p.[moe](G)[sp].[moe](G)}$$$$ (last 3' nucleoside missing),0
